# Laboratory results taken from PubChem BioAssay (NCI).
# Where “and” joins values, the source holds several entries; their conditions need not be identical. Identical values can stand only once.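 In this assay, cells in 96-well plates receive the compound at five concentrations for 48 hours. Endpoints are linearly interpolated between the surrounding concentrations. Abbreviation: GI50, concentration required for 50% inhibition of growth. TGI denotes the concentration required for complete inhibition of growth.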
# Legend:
# Assay in all cases: NCI anticancer screen, dose series, 48 h
# M14 melanoma = system: M14 melanoma
# TK-10 renal = system: TK-10 renal
# SN12C renal = system: SN12C renal
# A549 NSCLC = system: A549 NSCLC
# SF-295 CNS = system: SF-295 CNS
# PC-3 prostate = system: PC-3 prostate
# SK-MEL-2 melanoma = system: SK-MEL-2 melanoma
# CCRF-CEM leukemia = system: CCRF-CEM leukemia
# MOLT-4 leukemia = system: MOLT-4 leukemia
# MDA-MB-435 = system: MDA-MB-435
Compound,GI50 (M14 melanoma),TGI (M14 melanoma),GI50 (TK-10 renal),TGI (TK-10 renal),GI50 (SN12C renal),TGI (SN12C renal),GI50 (A549 NSCLC),TGI (A549 NSCLC),GI50 (SF-295 CNS),TGI (SF-295 CNS),GI50 (PC-3 prostate),TGI (PC-3 prostate),GI50 (SK-MEL-2 melanoma),TGI (SK-MEL-2 melanoma),GI50 (CCRF-CEM leukemia),TGI (CCRF-CEM leukemia),GI50 (MOLT-4 leukemia),TGI (MOLT-4 leukemia),GI50 (MDA-MB-435),TGI (MDA-MB-435)
COC(=O)c1cc2c3ccccc3n3c(=O)c4cc5ccc(N(S(=O)(=O)c6ccc(C)cc6)S(=O)(=O)c6ccc(C)cc6)cc5nc4c(n1)c23,54.4 µM,> 100 µM,19.4 µM,44 µM,> 100 µM,> 100 µM,> 100 µM,> 100 µM,20.5 µM,> 100 µM,> 100 µM,> 100 µM,25.9 µM,> 100 µM,19.2 µM,44.9 µM,28.6 µM,64.5 µM,> 100 µM,> 100 µM
CN(C)CCNc1ccc(CO)c2sc3ccc(O)cc3c(=O)c12,,16.5 µM,,32.1 µM,,15.4 µM,,6.77 µM,,12.1 µM,,5.92 µM,,11.6 µM,,21.3 µM,,> 21.7 µM,,4.34 µM
Cc1ncc(C(=O)Nc2ccc(CN3CCN(C)CC3)c(C(F)(F)F)c2)cc1C#Cc1cnc2cccnn12,0.163 µM,0.732 µM,0.797 µM,5.81 µM,0.288 µM,3.94 µM,0.32 µM,1.53 µM,1.01 µM,4.71 µM,0.651 µM,4.79 µM,0.335 µM,1.54 µM,0.199 µM,20.7 µM,0.156 µM,5.32 µM,0.243 µM,1.48 µM
CC(C)Nc1cc(-c2c[nH]c(C(=O)N[C@H](CO)c3cccc(Cl)c3)c2)c(Cl)cn1,0.101 µM,> 2.58 µM,0.795 µM and 0.36 µM,18.6 µM and > 10 µM,4.04 µM and > 4.03 µM,20.9 µM and > 10 µM,2.33 µM and 0.919 µM,20.3 µM and > 10 µM,4.22 µM and > 8.07 µM,18.1 µM and > 10 µM,3.96 µM and > 5.54 µM,18.4 µM and > 10 µM,0.18 µM and 0.179 µM,0.75 µM and 1.41 µM,4.09 µM and 4.7 µM,> 100 µM,2.55 µM and 2.57 µM,19.6 µM and > 10 µM,0.312 µM and 0.335 µM,14.9 µM and > 10 µM
O=C(Nc1cc(C(F)(F)F)ccc1Cl)c1ccc(NC2=C(Cl)C(=O)N(Cc3ccccc3)C2=O)cc1,37.6 µM,> 100 µM,24.7 µM,62.3 µM,19.6 µM,61.2 µM,> 100 µM,> 100 µM,40.1 µM,> 100 µM,14.8 µM,37.8 µM,18.6 µM,40.6 µM,1.42 µM,11.7 µM,3.53 µM,77.7 µM,29.5 µM,> 100 µM
O=C1c2ccccc2-[n+]2ccc3c([nH]c4ccccc43)c21,,0.365 µM,,2.72 µM,,0.687 µM,,2.7 µM,,1.04 µM,,1.08 µM,,0.427 µM,,2.27 µM,,0.613 µM,,0.329 µM
O=C(O)c1ccc(NCn2nc(-c3ccccc3O)oc2=S)cc1,53.5 µM,> 100 µM,> 100 µM,> 100 µM,50.5 µM,> 100 µM,42.3 µM,> 100 µM,> 100 µM,> 100 µM,59.9 µM,> 100 µM,> 100 µM,> 100 µM,7.38 µM,> 100 µM,4.69 µM,26.8 µM,> 100 µM,> 100 µM
CC[C@H](Nc1ncnc2nc[nH]c12)c1nc2cccc(F)c2c(=O)n1-c1ccccc1,40.4 µM,> 100 µM,12.5 µM,> 100 µM,7.4 µM,> 100 µM,31.2 µM,> 100 µM,5.75 µM,> 100 µM,3.32 µM,> 100 µM,48.4 µM,> 100 µM,12.2 µM,> 100 µM,13.9 µM,> 87.4 µM,19.1 µM,> 74.6 µM
CC(C)c1cnn2c(NCc3ccccc3)cc(NC[C@H]3CCNC[C@@H]3O)nc12,0.586 µM and 0.688 µM,2.25 µM and 2.2 µM,1.5 µM and 2.27 µM,10.4 µM and 10.9 µM,0.327 µM and 0.378 µM,10.5 µM and 6.49 µM,0.342 µM and 0.272 µM,11.9 µM and 7.97 µM,1.15 µM and 0.508 µM,11.1 µM and 9.32 µM,0.363 µM and 0.587 µM,6.73 µM and 10.4 µM,0.334 µM and 0.668 µM,1.63 µM and 2.15 µM,0.31 µM and 0.672 µM,6.01 µM and 14.9 µM,0.361 µM and 0.504 µM,10.2 µM and 14 µM,0.343 µM and 0.578 µM,1.74 µM and 2.07 µM
Nc1nonc1-c1nc2cnccc2n1C1CC1,14.1 µM,> 25 µM,0.636 µM,> 20.3 µM,7.03 µM,> 25 µM,6.39 µM,> 25 µM,7.38 µM,> 25 µM,17.7 µM,> 25 µM,5.35 µM,> 21.7 µM,7.99 µM,> 25 µM,12.1 µM,> 25 µM,11.2 µM,> 25 µM
Cn1c(-c2c(N)n(Nc3cccc(Cl)c3)c3nc(C#N)c(C#N)nc23)nc2ccccc21,6.51 µM,20 µM,12.9 µM,> 50 µM,5.15 µM,12.5 µM,10.9 µM,35.4 µM,11 µM,27.8 µM,10.5 µM,33.9 µM,5.85 µM,18.9 µM,23.5 µM,> 50 µM,> 50 µM,> 50 µM,3.28 µM,14 µM
COc1ccc2c(=O)cc(-c3ccccc3)[nH]c2c1,5.93 µM,> 100 µM,> 100 µM,> 100 µM,3.16 µM,> 100 µM,0.67 µM,,0.33 µM,1.84 µM,0.389 µM,> 100 µM,,> 100 µM,1.48 µM,> 100 µM,1.25 µM,> 100 µM,0.18 µM,0.523 µM
CCOC(=O)c1cc2cc3c4c(c2oc1=O)CCCN4CCC3,,> 100 µM,,> 100 µM,,> 100 µM,,> 100 µM,,> 100 µM,,97.5 µM,,> 100 µM,,> 100 µM,,62.9 µM,,83.5 µM
